Here are results for 16 compounds from patent publication US20230203059A1, “MACROCYCLIC JAK INHIBITOR AND USES THEREOF” (Biopolar Hongye (Guangdong) Pharmaceutical Co. Ltd., priority 2020, published 2023).

Assay type in all cases: biochemical
Assay [1] concerns the target TYK2 (Homo sapiens, UniProt P29597). The assay is described as follows: JAK kinase activity, homogeneous time-resolved fluorescence (TYK2 reaction system). Particulars: ATP 2 μM, TYK2 protein 0.2 ng/μL; read-out: TYK 2 activity. The protocol: (§1) The activity measurement method of JAK kinase was to use homogeneous time-resolved fluorescence technique. The reaction was performed in 384 shallow well plates with a total reaction volume of 10 μL. The mixture of kinase protein, compound, ATP and substrate was carried out in a reaction buffer of 50 mM Hepes (pH7.0), NaN3 0.02%, BSA 0.01%, 0.1 mM Orthocanadate, 5 mM MgCl2, and 1 mM DTT. After reacting for 1 hour, an antibody capable of recognizing substrate phosphorylation, dye XL-615 and detection buffer (Cisbio) containing EDTA were added to the system. The reaction signal of kinase was detected by PE company's porous plate detector. The parameter settings were excitation light at 320 nm, emission light at 615 nm and 665 nm. The activity of JAK is indirectly reflected by the signal ratio of 665 nm and 615 nm. In the reaction, the background well without enzyme and the total enzyme activity well without compound were set.
(§2) The IC50 value of the compound inhibiting protein was obtained by the formula: Y=100/(1+10^((Log IC50−X)*HillSlope)). In JAK1 reaction system, the concentration of ATP was 2 μM, and the concentration of JAK1 protein was 0.2 ng/μL.
In TYK2 reaction system, the concentration of ATP was 2 μM, and the concentration of TYK2 protein was 0.2 ng/μL.

For assay [2], the target named is JAK2 (Homo sapiens, UniProt O60674). Briefly: JAK kinase activity, homogeneous time-resolved fluorescence (JAK2 reaction system). Particulars: ATP 2 μM, JAK2 protein 0.01 ng/μL. The protocol:
as §1, §2
In JAK2 reaction system, the concentration of ATP was 2 μM, and the concentration of JAK2 protein was 0.01 ng/μL.

Assay [3] addresses T1, JAK3 (Homo sapiens, UniProt P52333).
T1 sequence (P52333 1-1124): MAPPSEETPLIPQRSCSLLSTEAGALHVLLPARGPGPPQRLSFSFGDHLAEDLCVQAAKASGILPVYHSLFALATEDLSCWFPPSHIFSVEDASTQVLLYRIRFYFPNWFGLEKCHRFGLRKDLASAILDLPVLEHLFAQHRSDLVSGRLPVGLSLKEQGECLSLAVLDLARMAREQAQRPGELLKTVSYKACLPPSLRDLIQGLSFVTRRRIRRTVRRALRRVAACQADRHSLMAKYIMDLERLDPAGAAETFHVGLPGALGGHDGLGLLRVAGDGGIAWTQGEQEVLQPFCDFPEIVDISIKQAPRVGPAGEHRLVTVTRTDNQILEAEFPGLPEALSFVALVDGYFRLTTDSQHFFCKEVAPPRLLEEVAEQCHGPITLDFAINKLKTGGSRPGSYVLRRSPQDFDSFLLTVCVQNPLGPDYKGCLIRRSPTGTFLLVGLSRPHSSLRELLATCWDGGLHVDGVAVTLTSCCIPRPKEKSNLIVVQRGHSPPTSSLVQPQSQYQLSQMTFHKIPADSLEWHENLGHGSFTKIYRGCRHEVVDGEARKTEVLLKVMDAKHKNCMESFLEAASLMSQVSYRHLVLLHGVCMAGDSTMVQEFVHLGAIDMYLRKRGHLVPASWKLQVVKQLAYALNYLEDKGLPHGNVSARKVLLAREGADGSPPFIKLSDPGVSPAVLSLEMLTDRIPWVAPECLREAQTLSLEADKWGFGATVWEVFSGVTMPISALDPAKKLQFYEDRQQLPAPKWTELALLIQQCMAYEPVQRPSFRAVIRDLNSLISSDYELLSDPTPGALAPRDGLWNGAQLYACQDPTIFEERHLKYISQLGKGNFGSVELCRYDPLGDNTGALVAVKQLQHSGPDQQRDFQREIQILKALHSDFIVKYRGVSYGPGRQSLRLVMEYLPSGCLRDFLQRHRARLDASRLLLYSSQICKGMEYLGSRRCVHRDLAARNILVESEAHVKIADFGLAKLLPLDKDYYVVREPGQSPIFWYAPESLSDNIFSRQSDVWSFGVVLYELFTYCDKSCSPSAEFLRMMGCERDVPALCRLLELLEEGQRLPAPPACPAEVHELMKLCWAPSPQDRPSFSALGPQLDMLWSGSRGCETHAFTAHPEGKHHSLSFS
Briefly: JAK kinase activity, homogeneous time-resolved fluorescence (JAK3 reaction system). The conditions noted are these: ATP 2 μM, JAK3 protein 0.04 ng/μL; read-out: JAK 3 activity. The protocol:
as §1, with “The reaction was performed in 384 shallow well plates with a total reaction volume of 10 μL.” left out, “After reacting for 1 hour, an antibody capable of recognizing substrate phosphorylation, dye XL-615 and detection buffer (Cisbio) containing EDTA were added to the system.” left out, “set. […]” for “set.”
In JAK3 reaction system, the concentration of ATP was 2 μM, and the concentration of JAK3 protein was 0.04 ng/μL.

Assay [4] addresses JAK1 (Homo sapiens, UniProt P23458). Briefly: JAK kinase activity, homogeneous time-resolved fluorescence (JAK1 reaction system). The conditions noted are these: ATP 2 μM, JAK1 protein 0.2 ng/μL; read-out: JAK 1 activity. The protocol:
as §1, §2

Chain of JAK2 (O60674 whole entry): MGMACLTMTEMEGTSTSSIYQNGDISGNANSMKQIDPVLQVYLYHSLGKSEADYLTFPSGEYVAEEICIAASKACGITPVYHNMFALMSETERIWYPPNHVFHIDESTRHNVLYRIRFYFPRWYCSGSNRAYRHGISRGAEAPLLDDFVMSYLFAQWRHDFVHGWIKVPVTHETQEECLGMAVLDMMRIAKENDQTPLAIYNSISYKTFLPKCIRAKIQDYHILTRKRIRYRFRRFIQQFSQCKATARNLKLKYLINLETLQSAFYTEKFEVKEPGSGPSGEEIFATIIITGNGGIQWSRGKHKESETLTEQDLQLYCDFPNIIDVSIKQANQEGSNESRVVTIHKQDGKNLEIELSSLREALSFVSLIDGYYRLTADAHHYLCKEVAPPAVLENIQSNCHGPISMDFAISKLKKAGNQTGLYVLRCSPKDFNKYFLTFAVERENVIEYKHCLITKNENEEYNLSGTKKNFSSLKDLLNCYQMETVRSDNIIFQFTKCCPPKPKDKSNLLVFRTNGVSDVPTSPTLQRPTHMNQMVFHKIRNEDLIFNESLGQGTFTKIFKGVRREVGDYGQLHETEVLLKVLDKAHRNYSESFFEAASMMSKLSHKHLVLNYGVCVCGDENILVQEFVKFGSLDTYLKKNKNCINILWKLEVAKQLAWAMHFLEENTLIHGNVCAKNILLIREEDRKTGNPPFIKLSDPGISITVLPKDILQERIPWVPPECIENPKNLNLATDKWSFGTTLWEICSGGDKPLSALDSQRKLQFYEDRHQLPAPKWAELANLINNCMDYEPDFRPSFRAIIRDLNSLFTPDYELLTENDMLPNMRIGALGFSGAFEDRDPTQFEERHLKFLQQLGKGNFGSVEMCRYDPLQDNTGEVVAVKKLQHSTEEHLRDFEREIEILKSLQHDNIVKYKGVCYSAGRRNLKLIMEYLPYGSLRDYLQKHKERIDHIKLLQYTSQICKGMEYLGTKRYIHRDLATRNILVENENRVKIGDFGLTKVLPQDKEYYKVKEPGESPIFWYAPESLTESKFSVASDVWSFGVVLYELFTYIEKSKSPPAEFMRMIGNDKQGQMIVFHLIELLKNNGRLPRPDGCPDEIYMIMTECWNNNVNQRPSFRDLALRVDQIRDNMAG
Chain of TYK2 (P29597 whole entry): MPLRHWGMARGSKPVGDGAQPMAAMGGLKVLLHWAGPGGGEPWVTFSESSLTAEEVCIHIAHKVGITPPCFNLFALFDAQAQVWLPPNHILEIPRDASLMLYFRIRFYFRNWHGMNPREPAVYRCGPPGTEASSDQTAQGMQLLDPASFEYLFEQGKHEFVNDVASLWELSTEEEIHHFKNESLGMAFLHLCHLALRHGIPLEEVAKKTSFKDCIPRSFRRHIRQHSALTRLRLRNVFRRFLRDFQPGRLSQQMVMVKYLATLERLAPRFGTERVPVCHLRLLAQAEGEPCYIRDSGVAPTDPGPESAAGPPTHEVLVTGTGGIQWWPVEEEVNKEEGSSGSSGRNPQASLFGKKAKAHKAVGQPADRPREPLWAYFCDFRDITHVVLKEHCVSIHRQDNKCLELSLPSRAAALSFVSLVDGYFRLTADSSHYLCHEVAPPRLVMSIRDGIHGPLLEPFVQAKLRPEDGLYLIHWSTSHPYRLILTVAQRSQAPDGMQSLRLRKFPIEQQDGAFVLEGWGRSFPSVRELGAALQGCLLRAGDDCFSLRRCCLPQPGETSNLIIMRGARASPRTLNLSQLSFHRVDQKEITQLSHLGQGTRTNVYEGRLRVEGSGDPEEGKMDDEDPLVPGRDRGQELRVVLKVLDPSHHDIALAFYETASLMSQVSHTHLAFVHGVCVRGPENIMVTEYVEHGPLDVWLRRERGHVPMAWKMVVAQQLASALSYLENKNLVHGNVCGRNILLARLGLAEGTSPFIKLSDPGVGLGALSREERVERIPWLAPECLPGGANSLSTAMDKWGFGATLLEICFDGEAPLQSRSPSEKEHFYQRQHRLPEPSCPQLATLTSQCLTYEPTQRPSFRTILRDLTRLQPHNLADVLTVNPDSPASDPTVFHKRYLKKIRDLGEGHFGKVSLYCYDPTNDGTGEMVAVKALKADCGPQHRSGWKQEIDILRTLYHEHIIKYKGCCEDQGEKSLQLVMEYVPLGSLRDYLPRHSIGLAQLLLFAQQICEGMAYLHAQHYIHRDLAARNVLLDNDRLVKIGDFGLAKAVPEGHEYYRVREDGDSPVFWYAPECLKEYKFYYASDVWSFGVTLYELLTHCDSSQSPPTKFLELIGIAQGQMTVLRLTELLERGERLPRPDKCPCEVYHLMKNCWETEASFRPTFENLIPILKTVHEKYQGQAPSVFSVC
Chain of JAK1 (P23458 whole entry): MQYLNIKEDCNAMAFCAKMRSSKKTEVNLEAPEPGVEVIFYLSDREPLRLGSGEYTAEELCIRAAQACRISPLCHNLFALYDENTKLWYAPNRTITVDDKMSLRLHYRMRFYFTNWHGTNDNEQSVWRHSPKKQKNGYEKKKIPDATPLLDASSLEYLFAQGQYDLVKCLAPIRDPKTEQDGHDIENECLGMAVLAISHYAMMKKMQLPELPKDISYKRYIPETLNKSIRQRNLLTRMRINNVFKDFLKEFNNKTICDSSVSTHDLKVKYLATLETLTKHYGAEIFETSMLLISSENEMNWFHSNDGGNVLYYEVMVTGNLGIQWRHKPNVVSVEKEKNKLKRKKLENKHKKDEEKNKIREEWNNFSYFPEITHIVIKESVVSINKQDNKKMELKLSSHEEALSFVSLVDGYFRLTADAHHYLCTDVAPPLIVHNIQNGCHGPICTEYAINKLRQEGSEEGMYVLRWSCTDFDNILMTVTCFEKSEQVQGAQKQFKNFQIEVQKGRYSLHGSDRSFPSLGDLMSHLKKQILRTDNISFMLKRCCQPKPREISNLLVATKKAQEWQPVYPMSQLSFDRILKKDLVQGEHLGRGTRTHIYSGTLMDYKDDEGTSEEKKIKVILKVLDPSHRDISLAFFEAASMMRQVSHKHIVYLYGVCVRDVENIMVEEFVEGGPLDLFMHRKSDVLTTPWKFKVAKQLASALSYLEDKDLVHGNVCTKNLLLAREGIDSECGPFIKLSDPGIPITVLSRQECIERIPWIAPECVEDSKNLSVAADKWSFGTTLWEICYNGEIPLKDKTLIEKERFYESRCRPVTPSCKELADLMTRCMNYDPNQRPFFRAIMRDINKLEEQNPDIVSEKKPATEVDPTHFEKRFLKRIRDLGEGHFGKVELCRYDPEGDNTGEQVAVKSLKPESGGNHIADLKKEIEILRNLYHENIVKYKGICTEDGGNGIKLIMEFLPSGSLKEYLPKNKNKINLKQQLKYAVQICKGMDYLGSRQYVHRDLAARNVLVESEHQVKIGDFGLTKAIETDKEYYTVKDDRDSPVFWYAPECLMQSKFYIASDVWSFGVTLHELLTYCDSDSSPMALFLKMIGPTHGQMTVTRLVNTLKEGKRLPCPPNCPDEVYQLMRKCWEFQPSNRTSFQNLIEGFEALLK

On to `COc1ccc2cc1COCCCCNC(=O)c1ccc(c(F)c1)-c1ccnc(n1)N2` [Example 15, 1^2-fluoro-4^4-methoxy-6-oxa-3,11-di-aza-2(4,2)-pyrimidina-1(1,4),4(1,3)-dibenzenacyclododecaphan-12-one], for which the IC50 in assay [1] was 1000 to 10000 nM; in assay [2], 101 to 1000 nM; in assay [3], 11 to 100 nM; in assay [4] it was 101 to 1000 nM.

As for `O=C1NCCCCOCc2cc(cc(N3CCOCC3)c2)Nc2ncc(Cl)c(n2)-c2ccc1cc2` [Example 16, 2^5-chloro-4^5-morpholin-6-oxa-3,11-diaza-2(4,2)-pyrimidina-1(1,4),4(1,3)-dibenzenacyclododecaphan-12-one], the IC50 in assay [1] lay in the range of 1000 to 10000 nM; in assay [2] it was 11 to 100 nM; in assay [3], 11 to 100 nM; in assay [4], 11 to 100 nM.

In the case of `O=C1NCCCCOCc2cc(ccc2N2CCOCC2)Nc2ncc(Cl)c(n2)-c2ccc1cc2Cl` [Example 17, 1^2,2^5-dichloro-4^4-morpholin-6-oxa-3,11-diaza-2(4,2)-pyrimidina-1(1,4),4(1,3)-dibenzenacyclododecaphan-12-one], the IC50 lay in the range of 1000 to 10000 nM in assay [1], 101 to 1000 nM in assay [2], 101 to 1000 nM in assay [3] and 1000 to 10000 nM in assay [4].

With `O=C1NCCCCOCc2cccc(c2)Nc2ncc(Cl)c(n2)-c2ccc1cc2Cl` [Example 18, 1^2,2^5-dichloro-6-oxa-3,11-diaza-2(4,2)-pyrimidina-1(1,4),4(1,3)-dibenz-enacyclododecaphan-12-one], the IC50 in assay [1] is above 10000 nM; in assay [2], 101 to 1000 nM; in assay [3] it was 101 to 1000 nM; in assay [4] it was 1000 to 10000 nM.

Turning to `O=C1NCCCCOCc2cc(ccc2N2CCOCC2)Nc2nccc(n2)-c2ccc1cc2C(F)(F)F` [Example 19, 4^4-morpholin-1^2-trifluoromethyl-6-oxa-3,11-diaza-2(4,2)-pyrimi-dina-1(1,4),4(1,3)-dibenzenacyclododecaphan-12-one], the IC50 in assay [1] is above 10000 nM; in assay [2], 1000 to 10000 nM; in assay [3], 1000 to 10000 nM; in assay [4], 1000 to 10000 nM.

For `O=C1NCCCCOCc2cc(ccc2Cl)Nc2nccc(n2)-c2ccc1cc2F` [Example 20, 4^4-chloro-1^2-fluoro-6-oxa-3,11-diaza-2(4,2)-pyrimidina-1(1,4),4(1,3)-di-benzenacyclododecaphan-12-one], the IC50 in assay [1] lay within 1000 to 10000 nM; in assay [2], 101 to 1000 nM; in assay [3] it was 11 to 100 nM; in assay [4], 101 to 1000 nM.

As for `COc1cc2ccc1-c1ccnc(n1)Nc1ccc(N3CCOCC3)c(c1)COCCCCNC2=O` [Example 21, 1^2-methoxy-4^4-morpholin-6-oxa-3,11-diaza-2(4,2)-pyrimidina-1(1,4),4(1,3)-dibenzenacyclododecaphan-12-one], the IC50 in assay [1] is 1000 to 10000 nM; in assay [2] it was 101 to 1000 nM; in assay [3] it was 101 to 1000 nM; in assay [4] it was 1000 to 10000 nM.

For `O=C1NCCCCOCc2cc(ccc2N2CCOCC2)Nc2nccc(n2)-c2ccc1cc2OC(F)(F)F` [Example 22, 4^4-morpholin-1^2-trifluoromethoxy-6-oxa-3,11-diaza-2(4,2)-pyrimidina-1(1,4),4(1,3)-dibenzenacyclododeca-phan-12-one], the IC50 in assay [1] was in the range of 1000 to 10000 nM; in assay [2], 101 to 1000 nM; in assay [3] it was 101 to 1000 nM; in assay [4], 1000 to 10000 nM.

Take `Cc1cc2ccc1-c1ccnc(n1)Nc1ccc(N3CCOCC3)c(c1)COCCCCNC2=O` [Example 23, 1^2-methyl-4^4-morpholin-6-oxa-3,11-diaza-2(4,2)-pyrimidina-1(1,4),4(1,3)-dibenzenacyclododecaphan-12-one]: the IC50 in assay [1] was in the range of 1000 to 10000 nM; in assay [2], 101 to 1000 nM; in assay [3] it was 11 to 100 nM; in assay [4], 1000 to 10000 nM.

On to `O=C1NCCCCOCc2cc(ccc2N2CCOCC2)Nc2nccc(n2)-c2ccc1cc2[N+](=O)[O-]` [Example 24, 1^2-nitro-4^4-morpholin-6-oxa-3,11-di-aza-2(4,2)-pyrimidina-1(1,4),4(1,3)-dibenzenacyclododecaphan-12-one], for which the IC50 in assay [1] lay within 1000 to 10000 nM; in assay [2], 1000 to 10000 nM; in assay [3], 101 to 1000 nM; in assay [4], 1000 to 10000 nM.

For the compound `O=C1NCCCCOCc2cc(cc(N3CCOCC3)c2)Nc2ncc(Cl)c(n2)-c2ccc1cc2F` [Example 25], the IC50 in assay [1] fell in the range of 1000 to 10000 nM; in assay [2], 1000 to 10000 nM; in assay [3] it was 101 to 1000 nM; in assay [4] it was 1000 to 10000 nM.

As to `COc1cnc2nc1-c1ccc(cc1)C(=O)NCCCCOCc1cc(ccc1N1CCOCC1)N2` [Example 26, 2^5-methoxy-4^4-morpholin-6-oxa-3,11-diaza-2(4,2)-pyrimidina-1(1,4),4(1,3)-dibenzenacyclododecaphan-12-one], the IC50 was 101 to 1000 nM in assay [1], 11 to 100 nM in assay [2], 11 to 100 nM in assay [3] and 101 to 1000 nM in assay [4].

On to `O=C1NCCCCOCc2cc(cc(N3CCOCC3)c2)Nc2nccc(n2)-c2ccc1cc2F` [Example 27, 1^2-fluoro-4^5-morpholin-6-oxa-3,11-diaza-2(4,2)-pyrimidina-1(1,4),4(1,3)-dibenzenacyclododecaphan-12-one], for which the IC50 in assay [1] was 101 to 1000 nM; in assay [2], 11 to 100 nM; in assay [3], 11 to 100 nM; in assay [4], 101 to 1000 nM.

In the case of `CN(C)c1ccc2cc1COCCCCNC(=O)c1ccc(c(F)c1)-c1ccnc(n1)N2` [Example 28, 1^2-fluoro-4^4-dimethylamino-6-oxa-3,11-diaza-2(4,2)-pyrimidina-1(1,4),4(1,3)-dibenzenacyclododecaphan-12-one], the IC50 fell in the range of 101 to 1000 nM in assay [1], 11 to 100 nM in assay [2], 11 to 100 nM in assay [3] and 101 to 1000 nM in assay [4].

Take `O=C1NCCCCOCc2cc(ccc2N2CCCCC2)Nc2nccc(n2)-c2ccc1cc2F` [Example 29, 1^2-fluoro-4^4-(piperidin-1-)-6-oxa-3,11-diaza-2(4,2)-pyrimidina-1(1,4),4(1,3)-dibenzenacyclododecaphan-12-one]: the IC50 fell in the range of 1000 to 10000 nM in assay [1], 11 to 100 nM in assay [2], 11 to 100 nM in assay [3] and 101 to 1000 nM in assay [4].

In the case of `O=C1NCCCCOCc2cc(ccc2N2CCOCC2)Nc2nccc(n2)-c2ccc1cc2Cl` [Example 30, 1^2-chloro-4^4-morpholin-6-oxa-3,11-diaza-2(4,2)-pyrimidina-1(1,4),4(1,3)-dibenzenacyclododecaphan-12-one], the IC50 in assay [1] lay within 101 to 1000 nM; in assay [2] it was 11 to 100 nM; in assay [3], 11 to 100 nM; in assay [4] it was 101 to 1000 nM.
